Laboratory results as given in BindingDB's records for doi:10.1021/jm970499g (Novartis Institute For Medical Sciences, 1998).
One block for each compound: values may come before it.

Tests used:
[1] = target: Substance-P receptor (rabbit); assay: In vitro binding affinity towards Tachykinin receptor 1 to displace [3H][Sar9Met(O2)11]-SP (1 nM) binding to rabbit whole brain membranes
[2] = target: Substance-P receptor (rabbit); assay: as above; remark: listed apart in the source

Structure (SMILES): COc1ccccc1CNC(=NC#N)N1CCC[C@H]1C(=O)NC(c1ccccc1)c1ccccc1 [1-[N-(2-Methoxy-benzyl)-N'-cyano-carbamimidoyl]-pyrrolidine-2-carboxylic acid benzhydryl-amide]
- IC50 [2]: > 50000 nM

Structure (SMILES): Nc1ccccc1CNC(=S)N1CCC[C@H]1C(=O)NC(c1ccccc1)c1ccccc1 [(S)-1-(2-Amino-benzylthiocarbamoyl)-pyrrolidine-2-carboxylic acid benzhydryl-amide]
- IC50 [2]: > 50000 nM

Structure (SMILES): O=C(NC(c1ccccc1)c1ccccc1)[C@@H]1CCCN1C(=S)NCc1ccccc1Br [(S)-1-(2-Bromo-benzylthiocarbamoyl)-pyrrolidine-2-carboxylic acid benzhydryl-amide]
- Ki [1]: 170 nM

Structure (SMILES): O=C(NC(c1ccccc1)c1ccccc1)[C@@H]1CCCN1C(=S)NCc1ccccc1Cl [(S)-1-(2-Chloro-benzylthiocarbamoyl)-pyrrolidine-2-carboxylic acid benzhydryl-amide]
- Ki [1]: 170 nM

Structure (SMILES): O=C(NC(c1ccccc1)c1ccccc1)[C@@H]1CCCN1C(=S)NCc1ccccc1 [(S)-1-Benzylthiocarbamoyl-pyrrolidine-2-carboxylic acid benzhydryl-amide]
- IC50 [2]: > 5000 nM

Structure (SMILES): COc1ccccc1COC(=O)N1CCC[C@H]1C(=O)NC(c1ccccc1)c1ccccc1 [(S)-2-(Benzhydryl-carbamoyl)-pyrrolidine-1-carboxylic acid 2-methoxy-benzyl ester]
- IC50 [2]: > 50000 nM

Next, values leading:

- Ki [1]: 1280 nM
Structure (SMILES): COc1ccccc1CNC(=S)N1CCC[C@H]1C(=O)N[C@H](Cc1ccccc1)C(=O)N(C)Cc1ccccc1

- Ki [1]: 260 nM
Structure (SMILES): COc1ccccc1CNC(=S)N1CCC[C@H]1C(=O)N[C@@H](Cc1ccccc1)C(=O)N(C)Cc1ccccc1

- IC50 [2]: > 5000 nM
Structure (SMILES): COc1ccccc1CNC(=S)N1CCC[C@@H]1C(=O)NC(c1ccccc1)c1ccccc1 [(R)-1-(2-Methoxy-benzylthiocarbamoyl)-pyrrolidine-2-carboxylic acid benzhydryl-amide]

- Ki [1]: 1270 nM
Structure (SMILES): O=C(NC(c1ccccc1)c1ccccc1)[C@@H]1CCCN1C(=S)NCc1ccccc1F [(S)-1-(2-Fluoro-benzylthiocarbamoyl)-pyrrolidine-2-carboxylic acid benzhydryl-amide]

- IC50 [2]: > 5000 nM
Structure (SMILES): COc1ccccc1CNC(=S)N1CCC[C@H]1C(=O)NCC(c1ccccc1)c1ccccc1 [(S)-1-(2-Methoxy-benzylthiocarbamoyl)-pyrrolidine-2-carboxylic acid (2,2-diphenyl-ethyl)-amide]

- Ki [1]: 330 nM
Structure (SMILES): COc1ccccc1CNC(=S)N1CCC[C@H]1C(=O)NC(c1ccccc1)c1ccccc1 [(S)-1-(2-Methoxy-benzylthiocarbamoyl)-pyrrolidine-2-carboxylic acid benzhydryl-amide]

- IC50 [2]: > 50000 nM
Structure (SMILES): COc1ccccc1CNC(=S)N1CCC[C@H]1C(=O)N(Cc1ccccc1)Cc1ccccc1 [(S)-1-(2-Methoxy-benzylthiocarbamoyl)-pyrrolidine-2-carboxylic acid dibenzylamide]
